Measured values as given in patent publication US20220034868A1, “CARDIOTOXICITY ASSESSMENT METHOD” (ZEON CORPORATION, priority 2018, published 2022).

System: iCell Cardiomyocytes^2
Test: Cardiotoxicity assessment: cell-secreted BNP before and after drug addition (Human BNP ELISA Kit), 1060R 96-well plate
Format: cell-based
Conditions: Example 1; 1060R 96-well plate (surface free energy 34 mN/m), fibronectin coated; final doxorubicin 10^-6 M to 10^-14 M; 16 hours at 37° C.; n=3; FIG. 1
Excerpt: As a culture container a 96-well plate with 96 cylindrical wells each having a bottom area of 0.32 cm^2 was obtained by injection molding of ZEONOR® 1060R (ZEONOR is a registered trademark in Japan, other countries, or both) (ZEON Corporation, hydrogenated norbornene ring-opened polymer, hereinafter simply “1060R”) as an alicyclic structure-containing polymer. The culture container was sterilized with ethylene oxide gas (hereinafter, this culture container is referred to as “1060R 96-well plate”). The surface free energy at the inner bottom surface (cell-contacting surface, or culture surface) of each well of the 1060R 96-well plate was 34 mN/m. The surface free energy was measured using surface energy evaluation inks (Arcotest GmbH).
To each well of the […] 96-well plate was added 200 μL of 10 μg/mL human fibronectin (Corning Incorporated, product number: 356008) solution in sterile water and incubated at 37° C. for 2 hours to coat the inner bottom surface of each well with human fibronectin. Human fibronectin solution was removed from each well. […]
Supernatant samples before and after doxorubicin addition were measured for BNP level using Human BNP ELISA Kit (RayBiotech, product number: ELH-BNP).

Compound: COc1cccc2c1C(=O)c1c(O)c3c(c(O)c1C2=O)C[C@@](O)(C(=O)CO)C[C@@H]3O[C@H]1C[C@H](N)[C@H](O)[C@H](C)O1 [doxorubicin]
- cell-secreted BNP concentration difference before and after addition of doxorubicin: BNP concentration difference increases with increasing doxorubicin concentration
